Experimental findings from patent publication US20050215490A1, “Polyene polyketides and methods of treating bacterial infections” (Ecopia BioSciences, Inc., priority 2003, published 2005) are described below.

The test system of data set [1] is Staphylococcus aureus NRRL B-313 (ATCC™ 6538P). In words: MIC at different pH. In kind it is cell-based. The note with it: S. aureus ATCC 6538P. As for the experimental part: Antibacterial activitiy of Compounds.3, 4, 5, 6 and 7 are accomplished using the same method in a panel of bacterial strains and Vancomycin as positive control.
Antibacterial efficacy of Compounds 1, 2, 3, 4, 5 and 6 on bacterial strain Staphylococcus aureus NRRL B-313 (ATCC™ 6538P) was determined at different pH concentrations.

For another data set, the system named is CD-1 female mice. The data set can be described thus: in vivo. The note with it: CD-1, mouse. As for the experimental part:
A. Toxicity: Acute toxicities were determined using CD-1 female mice (supplied by Charles River Laboratories, Wilmington, Mass.) having a bodyweight of 18-25 g, and about 6 weeks of age. Compounds 1 and 2 at doses ranging from 1 to 70 mg/kg (formulated in 20% propylene glycol/water for a total volume of 10 μL/g of weight) were administered intraperitoneal (i.p.) and intravenous (i.v.) to groups of 5 mice (5 mice per concentration, per mode of administration). Two groups of 3 mice were injected with vehicle only. Mice were observed immediately after injection, within 4 hours and once a day for the subsequent days. Acute toxicity studies of Compound 1 in mice indicated no observable effect and high dose tolerability: 70 mg/kg intraperitoneal and 50 mg/kg intravenous (an MTD of 250 mg/kg was also determined by oral administration). […] In vitro Haemolytic activity results are also shown in Table 7, along with the in vivo toxicity and efficacy of Compound 1.

Data set [2] concerns S. epidermidis (ATCC™ 12228). In words: Minimal bactericidal concentration (NCCLS M26-A). In kind it is cell-based, Staphylococcus epidermidis. Conditions: for MBC: Staphylococcus epidermidis, more than 99.9% growth inhibition. As for the experimental part:
Minimal bactericidal concentration (MBC) was also determined for Compounds 1 and 2. […] MBC were measured against three Staphylococcus strains, namely sp. aureus MSSA (ATCC™ 6538P), sp. aureus MRSA-hVISA (ATCC™ 700699) and sp. epidermidis (ATCC™ 12228). The results, shown in Table 6 below, were consistent with bactericidal activity (MBC/MIC ratio were of 1 to 2).
MBC determination was performed according to the NCCLS guideline M26-A: Methods for Determining Bactericidal Activity of Antimicrobial Agents (NCCLS document […], ISBN 1-56238-394-9; NCCLS, 940 West Valley Road, Suite 1400, Wayne, Pa. 19087-1898 USA), the content of which is incorporated herein by reference.
Microdilutions broth assays were performed using the same procedure as for MIC determination, Example 6. 24 hours post-incubation, cells were collected in wells corresponding to the MIC, 2×MIC and 4×MIC. Collected cells were plated on agar media. MBC were determined as the drug concentration at which more than 99.9% growth inhibition was observed. As a reference for 100% growth, cells grown in media only were also plated.

The subject of data set [3] is Bacillus megaterium (ATCC™ 14581). In words: MIC, broth microdilution (NCCLS M7-A5). In kind it is cell-based. Conditions: Priestia megaterium, ATCC14581; B. megaterium ATCC 14581; Mueller-Hinton; 35° C., 18 hours; read-out: MIC. As for the experimental part:
(§1) Antibacterial activity of Compounds 1 and 2 (Table 4) was measured by determining the minimal inhibitory concentration (MIC) necessary to obtain a complete inhibition of bacteria growth in eight indicator strains, namely Staphylococcus aureus (ATCC™ 6538P), Staphylococcus aureus MRS3 (ATCC™ 700699), Staphylococcus epidermidis (ATCC™ 12228), Bacillus subtilis (ATCC™ 23857), Bacillus megaterium (ATCC™ 14581), Enterococcus faecalis VRE-1 (ATCC™ 29212), Enterococcus faecalis VRE-2 (ATCC™ 51299) and Micrococcus luteus (ATCC™ 9341). Indicator strains preparation and MIC determination were performed according to the National Committee for Clinical Laboratory Standards (NCCLS) guideline M7-A5 Methods for Dilution Antimicrobial Susceptibility Tests for Bacteria That Grow Aerobically; Approved Standard-Fifth Edition. (NCCLS document M7-A5, ISBN 1-56238-394-9; NCCLS, 940 West Valley Road, Suite 1400, Wayne, Pa. 19087-1898 USA), the content of which is incorporated herein by reference.
(§2) Compounds 1 and 2 were prepared as 100× stock solution in DMSO, with concentrations ranging from 3.2 mg/ml to 0.00625 mg/ml (a two-fold dilution series over […]). An aliquot of each 100× stock solution was diluted 50-fold in test medium described below to give a set of ten (10) 2× solutions ranging from 64 to 0.125 μg/mL. 50 μl of each of the ten 2× solutions was aliquoted into the corresponding well of a 12-well row, with the final well reserved for medium alone control. Each test was made in duplicate.
(§3) Vancomycin (Sigma™) used as positive control compounds, was prepared as 2× stock solutions in sterile, double-distilled water (ddH2O) ranging from 64 μg/ml to […] (a two-fold dilution series over 10 points). An aliquot of 50 μl corresponding to each concentration (at 2×) was then transferred to 96-well microplates to obtain a series of eleven two-fold dilutions.
(§4) An isolated colony of each of the eight indicator strains was used to inoculate tubes containing 3 ml of test medium. Mueller-Hinton test medium was used for Staphylococcus aureus (ATCC™ 6538P), Staphylococcus aureus MRS3 (ATCC™ 700699), Staphylococcus epidermidis (ATCC™ 12228), Bacillus subtilis (ATCC™ 23857), Bacillus megaterium (ATCC™ 14581) and Micrococcus luteus (ATCC™ 9341) indicator strains, and BHI (Brain-Heart Infusion broth) test medium was used for Enterococcus faecalis VRE-1 (ATCC™ 29212) and Enterococcus faecalis VRE-2 (ATCC™ 51299) indicator strains. Cells were grown overnight at 28° C. with shaking. Inoculum density for each indicator strain was adjusted to OD600=0.1 in 5 ml 0.85% saline, then further diluted 1/100 in appropriate medium. 50 μl of the final dilution (in test medium) of each indicator strain was added to each well of a 12-well row. This brings the final dilution of the test article or control compound in solution to 1×. The final inoculum is approximately 5×10^5 CFU/ml.
(§5) The indicator strains were incubated with 11 concentrations of each of Compounds 1 and 2, Vancomycin (Sigma™) control compound and one media alone control. For MIC determination, assay plates were incubated at 35° C. for 18 hours.
A general note: Broth dilution looks for growth in wells or tubes with falling amounts of substance.

Data set [4] relates to Micrococcus luteus (ATCC™ 9341). In words: MIC, broth microdilution (NCCLS M7-A5). In kind it is cell-based. The note with it: ATCC9341, M. luteus ATCC 9341, Mueller-Hinton, 35° C., 18 hours, read-out: MIC. As for the experimental part: as §1, §2, §3, §4, §5
The test system of data set [5] is Staphylococcus epidermidis (ATCC™ 12228). In words: MIC, broth microdilution (NCCLS M7-A5). In kind it is cell-based. The note with it: read-out: MIC. As for the experimental part:
as §1, §2, §3, §4, §5

Where [6] appears, read: ATCC12228, S. epidermidis ATCC 12228, Mueller-Hinton, 35° C., 18 hours.

SMILES strings stand for the structures. Values after ≈ are worked out from the molar mass of the structure shown. Where two headings read alike, the source gives them in different places.

`CC(=CC=CC=CC=CC=CC(C)C(OC1OC(C(=O)O)C(O)C(O)C1O)C(C)=CC(C)CCCC=CC(C)CC=CCCCN(C)C(=N)N)C(=O)NC1=C(O)CCC1=O` (stereo not drawn) [Compound 1, 3,4,5-trihydroxy-6-[1-[11-(2-hydroxy-5-oxocyclopent-1-enylcarbamoyl)-1-methyldodeca-2,4,6,8,10-pentaenyl]-2,4,10-trimethyl-16-(N-methyl-guanidino)-hexadeca-2,8,12-trienyloxy]-tetrahydropyran-2-carboxylic acid]: the MIC came out at 0.125 µg/mL (≈ 0.149 µM) in data set [1] (pH 5.0, read-out: MIC); 0.25 µg/mL (≈ 0.299 µM) in data set [1] (pH 6.0, read-out: MIC); 1 µg/mL (≈ 1.19 µM) in data set [1] (pH 7.0, read-out: MIC); 1 µg/mL (≈ 1.19 µM) in data set [3]; 4 µg/mL (≈ 4.78 µM) in data set [4]; 4 µg/mL (≈ 4.78 µM) in data set [5] (setting [6]). Further, in data set [5] (Table 6, S. epidermidis), the MIC came out at 4 µg/mL (≈ 4.78 µM). Moreover, the “Acute toxicity: dose with no observable effect (high dose tolerability)” value in the data set with CD-1 female mice (ip) stood at 70 mg/kg; with CD-1 female mice (iv), 50 mg/kg. The compound further gave an MBC/MIC in data set [2] of 1. In data set [2], this compound came in with an MBC of 4 µg/mL (≈ 4.78 µM).

`C\C(=C/C=C/C=C/C=C/C=C/C(C)C(OC1OC(C(=O)O)C(O)C(O)C1O)/C(C)=C/C(C)CCC/C=C/C(C)C/C=C/CCCNC(=N)N)C(=O)NC1=C(O)CCC1=O` (stereo not drawn) [Compound 2, 6-{16-guanidino-1-[11-(2-hydroxy-5-oxocyclopent-1-enylcarbamoyl)-1-methyldodeca-2,4,6,8,10-pentaenyl]-2,4,10-trimethylhexadeca-2,8,12-trienyloxy}-3,4,5-trihydroxy-tetrahydro-pyran-2-carboxylic acid]: the MIC in data set [1] (pH 5.0, read-out: MIC) was 0.0625 µg/mL (≈ 0.0759 µM); in data set [1] (pH 6.0, read-out: MIC) it was 0.125 µg/mL (≈ 0.152 µM); in data set [1] (pH 7.0, read-out: MIC) it was 1 µg/mL (≈ 1.22 µM); in data set [3], 1 µg/mL (≈ 1.22 µM); in data set [4] it was 1 to 2 µg/mL (≈ 1.22 to 2.43 µM); in data set [5] (setting [6]), 1 µg/mL (≈ 1.22 µM). The MIC in data set [5] (Table 6, S. epidermidis) is 1 µg/mL (≈ 1.22 µM). For the same compound, the “Acute toxicity: dose with no observable effect (high dose tolerability)” value with CD-1 female mice (iv) is given as 25 mg/kg. Besides, the MBC/MIC in data set [2] is 1. The MBC in data set [2] is 1 µg/mL (≈ 1.22 µM).

The term MIC denotes the lowest concentration that inhibits growth of the organism. One may read the MBC as the smallest concentration meeting the test's criterion for killing. A high value points to weaker bactericidal potency.
